Experimental findings from patent US4289775A, “Penicillins” (Karl Thomae GmbH, priority 1979, dated 1981) are described below.

Each structure is given as a SMILES string. ≈ marks a conversion by molar mass, not a printed value.

The test system of assay [1] is Pseudomonas aeruginosa Walter. As to the kind of experiment: in vivo test against experimental Pseudomonas infection in mice. The conditions noted are these: sc, 168 h, dose at which 50% of the animals survived, subcutaneous, 6 times first day, twice on second and third day, observation 7 days. Further details: species or system Female NMRI mice. As for the experimental part:
(§1) The compounds according to the invention were tested in vivo in mice against experimental infections. As pathogenic bacteria E.coli ATCC 11775 and Pseudomonas aeruginosa Walter were used. An intraperitoneal infection was induced in each mouse with 0.2 ml of a 5% mucin suspension of the bacteria corresponding to about 1.4×10^6 E. coli germs and 1.3×10^6 pseudomonas germs/mouse. Female NMRI mice were used, divided into groups of 10 animals. Two groups were untreated and the remaining groups were treated with different doses of the penicillins to be tested to determine the ED50 (dose at which 50% of the animals survived). The groups infected with E. coli were on the first day treated with the test compound three times ([…] post infectionem) and on the second day twice. The groups with the pseudomonas infection were on the first day treated with the test compound 6 times (1, 3, 5, 7, 9 and 11 hours post infectionem) and on the second and third day twice.
(§2) The observation time was in both cases 7 days.

In assay [2] the test system is Klebsiella pneumoniae 272. Briefly: serial dilution test in the microtiter system, MIC. It is filed as cell-based. The conditions noted are these: Klebs. pneum. 272, 37° C., 18-20 hours. As to the method:
(§3) The tests were performed according to the method of the serial dilution test in the microtiter system. The effect of the test substances on bacteriostasis was examined in a fluid medium. The bacteristatic activity was examined at the following concentrations: 80, 40, 20, 10, 5, 2.5, 1.25, 0.6, 0.3, 0.08 and 0.01 μgm/ml.
(§4) The nutrient medium consisted of: 10 gm of peptone, 8 gm of meat extract oxoid, 3 gm of sodium chloride, and 2 gm of sec. sodium phosphate diluted with distilled water to 1000 ml (pH 7.2-7.4). Only in the test against streptococci was 1% of glucose added. The age of the primary cultures was about 20 hours. The standardization of the microorganism suspension was effected by means of a photometer according to the method of Eppendorf (test tube diameter 14 mm, filter 546 nm), using for comparison a barium sulfate suspension formed by the addition of 3.0 ml of 1% barium chloride solution to 97 ml of 1% sulfuric acid. After the standardization, the Streptococcus aronson was further diluted to a concentration of 1:15 and the other microorganisms to a concentration of 1:1500 using a sodium chloride solution. 16 mgm of the test compound were placed into a 10 ml measuring flask, and the flask was filled up to the mark with the solvent. The further dilution series was standardized with distilled water or the particular solvent.
(§5) The cavities of microtiter plates were filled with 0.2 ml of nutrient medium. Then, 0.01 ml of the appropriate test compound solution was added, followed by inoculation with 0.01 ml of the standardized microorganism suspension. The bacteria were incubated at 37° C. for 18-20 hours. Control tests using only the solvent were carried out simultaneously.
(§6) The measurement was carried out macroscopically to determine the minimum inhibitory concentration (the lowest still bacteriostatically effective concentration).
(§7) Staphylococcus aureus SG 511, Escherichia coli ATCC 9637 and 11775, Pseudomonas aeruginosa Hamburgensis, ATCC 10145 and Pseudomonas aeruginosa Walter, Serratia marcescens ATCC 13880, Klebsiella pneumoniae ATCC 10031 and 272 and Proteus mirabilis Hamburgensis.

Assay [3] deals with Pseudomonas aeruginosa Hamburgensis. As to the kind of experiment: serial dilution test in the microtiter system, MIC. Format: cell-based. The conditions noted are these: Pseud. aerug. hamb., 37° C., 18-20 hours. As to the method: as §3, §4, §5, §6, §7
In assay [4] the test system is Proteus mirabilis Hamburgensis. Briefly: serial dilution test in the microtiter system, MIC. It is filed as cell-based. The conditions noted are these: Prot. mirabilis ham., 37° C., 18-20 hours. As to the method:
as §3, §4, §5, §6, §7

The subject of assay [5] is Klebsiella pneumoniae ATCC 10031. Briefly: serial dilution test in the microtiter system, MIC. It is filed as cell-based. Particulars: ATCC10031, Klebs. pneum. ATCC 10031, 37° C., 18-20 hours. As for the experimental part:
as §3, §4, §5, §6, §7

Assay [6] has as its system Pseudomonas aeruginosa ATCC 10145. Briefly: serial dilution test in the microtiter system, MIC. Format: cell-based. The conditions noted are these: ATCC10145, Pseud. aerug. ATCC 10145, 37° C., 18-20 hours. As to the method: as §3, §4, §5, §6, §7
The subject of assay [7] is Escherichia coli ATCC 11775. As to the kind of experiment: serial dilution test in the microtiter system, MIC. The conditions noted are these: ATCC11775, E. Coli ATCC 11775, 37° C., 18-20 hours. It is filed as cell-based. As for the experimental part:
as §3, §4, §5, §6, §7

In assay [8] the test system is Pseudomonas aeruginosa Walter. Briefly: serial dilution test in the microtiter system, MIC. Format: cell-based. Particulars: Pseud. aerug. Walter, 37° C., 18-20 hours. As to the method: as §3, §4, §5, §6, §7
The subject of assay [9] is Serratia marcescens ATCC 13880. As to the kind of experiment: serial dilution test in the microtiter system, MIC. Format: cell-based. The conditions noted are these: ATCC13880, Serrat. marsec., 37° C., 18-20 hours. As to the method:
as §3, §4, §5, §6, §7

Assay [10] has as its system Escherichia coli ATCC 9637. As to the kind of experiment: serial dilution test in the microtiter system, MIC. Format: cell-based. The conditions noted are these: ATCC9637, E. Coli ATCC 9637, 37° C., 18-20 hours. As to the method:
as §3, §4, §5, §6, §7

Assay [11] concerns E.coli ATCC 11775. Briefly: in vivo test against experimental E. coli infection in mice. Further details: species or system Female NMRI mice. Particulars: Escherichia coli, ATCC11775, sc, 168 h, dose at which 50% of the animals survived, subcutaneous, three times first day, twice second day, observation 7 days. As for the experimental part:
as §1, §2

A word on the ED50: it is the midpoint of the dose-response relation. For orientation: MIC means the lowest concentration that inhibits growth of the organism. The low end stands for a more susceptible organism, the high end for a less susceptible organism.

For the molecule `COCCNc1ncc(NC(=O)N[C@@H](C(=O)N[C@@H]2C(=O)N3[C@@H]2SC(C)(C)[C@@H]3C(=O)O)c2ccc(O)cc2)c(O)n1` [A, D-α-[3-(4-hydroxy-2-{2'-methoxyethylamino}-5-pyrimidinyl)-ureido]-p-hydroxybenzyl-penicillin sodium], the median effective dose (ED50) in [1] amounted to 1.5 mg/kg; in assay [11], 2 mg/kg. The MIC is 40 µg/mL in assay [2]; 1.25 µg/mL in assay [3]; 0.6 µg/mL in [4]; 20 µg/mL in assay [5]; 1.25 µg/mL in assay [6]; 1.25 µg/mL in assay [7]. Moreover, the minimum inhibitory concentration (MIC) was 5 µg/mL in assay [8], 0.6 µg/mL in assay [9] and 1.25 µg/mL in assay [10].
On to `CC1(C)S[C@@H]2[C@H](NC(=O)[C@H](NC(=O)Nc3cnc(NCCCO)nc3O)c3ccc(O)cc3)C(=O)N2[C@H]1C(=O)O` [B, D-α-[3-(4-hydroxy-2-{3'-hydroxypropylamino-}-5-pyrimidinyl)-ureido]-p-hydroxy-benzylpenicillin sodium], for which the ED50 was 1.2 mg/kg in assay [1] and 0.8 mg/kg in [11]. Also, the minimal inhibitory concentration (MIC) in [2] is 10 µg/mL; in assay [3], 1.25 µg/mL; in assay [4], 0.3 µg/mL; in assay [5], 10 µg/mL; in [6], 1.25 µg/mL; in assay [7], 0.6 µg/mL. The results for the MIC in [8], in assay [9] and in [10] were 5 µg/mL, 1.25 µg/mL and 0.6 µg/mL, respectively.
On to `CCOC(=O)CCNc1ncc(NC(=O)NC(C(=O)NC2C(=O)N3C2SC(C)(C)C3C(=O)O)c2ccc(O)cc2)c(O)n1` [D, D-α-[3-(2-{2'-ethoxycarbonylethylamino}-4-hydroxy-5-pyrimidinyl)-ureido]-p-hydroxy-benzylpencillin sodium], for which the MIC in [2] was 10 µg/mL; in [3], 2.5 µg/mL; in assay [4], 0.3 µg/mL; in assay [5] it was 10 µg/mL; in [6] it was 2.5 µg/mL; in assay [7] it was 0.6 µg/mL. Further, the results for the MIC in [8], in assay [9] and in [10] were 2.5 µg/mL, 1.25 µg/mL and 0.3 µg/mL, respectively. Moreover, the ED50 in [11] came out at 4.2 mg/kg.
As for `CC1(C)S[C@@H]2[C@H](NC(=O)[C@H](NC(=O)N3CCNC3=O)c3ccccc3)C(=O)N2[C@H]1C(=O)O` [F, azlocillin, reference compound], the minimum inhibitory concentration (MIC) is 40 µg/mL (≈ 86.7 µM) in [2], 1.25 µg/mL (≈ 2.71 µM) in assay [4], 40 µg/mL (≈ 86.7 µM) in [5] and 5 µg/mL (≈ 10.8 µM) in assay [9].
